{"source": "patent US8697095B1", "about": "“Inhibition of replication of oncogenic herpesviruses” (priority 2004, dated 2014)", "key": {"[1]": {"system": "HVS", "test": "Cytopathic effect and virus yield reduction, HVS in owl monkey kidney cells", "format": "cell-based, herpesvirus saimiri (HVS)"}, "[2]": {"system": "MHV 68", "test": "Cytopathic effect and virus yield reduction, MHV 68 in NIH3T12 cells", "format": "cell-based, murine gamma herpesvirus 68 (MHV-68)"}, "[3]": {"system": "EBV", "test": "Gardella gel antiviral assay, TPA-induced EBV replication in P3HR1 cells", "format": "cell-based, Epstein-Barr virus (EBV)", "conditions": "P3HR1 cells with TPA"}, "[4]": {"system": "NIH3T12 cells", "test": "Cell division inhibition (cell counts) in NIH3T12 cells", "format": "cell-based, Murine", "conditions": "Mus musculus, 48 h, NIH3T12, two days, read-out: 50% cell division inhibitory concentration", "protocol": "(§1) The effect of higher THC concentrations on cell division was also determined. Exponentially growing BCBL-1 or NIH12 cells were cultured for two days in the presence of various concentrations of THC or DMSO and cell counts were determined. The 50% cell division inhibitory concentration of THC for BCBL-1 cells was around 33 μM. NIH3T12 cells were less sensitive and the 50% inhibitory concentration was around 99 μM (not shown)."}, "[5]": {"system": "Owl monkey kidney (OMK) cells", "test": "Cytotoxicity in owl monkey kidney (OMK) cells", "format": "cell-based", "conditions": "analogous experiment", "text": "(§2) Because the observed effects might be due to a non-specific toxic effect of THC, the inventors tested whether THC alters cell division or morphology in NIH3T12 and owl monkey kidney (OMK) cells. […]."}, "[6]": {"system": "HSV-1", "test": "HSV-1 replication in OMK cells", "format": "cell-based", "protocol": "Control cultures were treated with […]. IC50 was determined by measuring virus titers in THC treated and control samples after one cycle of freeze-thawing of the cultures. Additional controls were uninfected cells grown in the presence of THC or DMSO. THC or DMSO were present throughout the experiment.\nThe inventors next examined whether or not the THC inhibitory effect can be observed against other herpesviruses and tested whether drug treatment suppresses the replication of the alpha herpesvirus, HSV-1. […] . […] HSV-1 replication in OMK was also unaffected by THC in an analogous experiment (not shown)."}, "[7]": {"system": "HSV-1", "test": "HSV-1 plaque formation and virus yield in NIH3T12 cells", "format": "cell-based"}, "[8]": {"system": "CMV immediate early promoter", "test": "Dual luciferase promoter assay, control CMV promoter in NIH3T12 cells", "format": "cell-based", "conditions": "5 μg/ml, 48 hours", "text": "(§3) FIG. 3 is a table showing the relative luciferase activity of extracts from control and THC treated cells. […] cells co-transfected with MHV 68 ORF 50 plus CMV control (top rows). BCBL-1 cells were co-transfected with the KSHV ORF 50 plus CMV control (bottom rows). Data represents averages from three independent co-transfection experiments.\n(§4) A DNA fragment corresponding to the promoter region upstream of the mapped mRNAs was cloned into the basic firefly luciferase vector (Promega, Inc, Madison Wis.) to evaluate the effect of THC on the KSHV ORF 50 promoter. To assay the effect of THC on the MHV 68 ORF 50 gene, a DNA fragment containing the 0.4 kb full length ORF 50 promoter (nucleotides 66242-66652) cloned upstream of the firefly luciferase was utilized. About 5 μg KSHV ORF 50 firefly plasmid DNA was transfected into BCBL-1 cells. About 5 μg MHV 68 ORF 50 firefly plasmid DNA was transfected Into NIH312 cells. Control renilla luciferase expression vector (under the control of the CMV immediate early promoter) was included and co-transfected along with the ORF 50 reporter constructs. […] Luciferase activities were determined using a dual luminometer.\n(§5) To evaluate the effect of THC on the MHV 68 and KSHV ORF 50 promoters, luciferase reporter assays were performed. […] Luciferase activities were determined using a dual luminometer. […]"}, "[9]": {"system": "CMV immediate early promoter", "test": "Dual luciferase promoter assay, control CMV promoter in BCBL-1 cells", "format": "cell-based", "conditions": "5 μg/ml", "text": "as §3, §4, §5"}, "[10]": {"system": "KSHV", "test": "Gardella gel antiviral assay, KSHV DNA replication in BCBL-1 cells"}, "[11]": {"system": "BCBL-1 cells", "test": "Cell division inhibition (cell counts) in BCBL-1 cells", "format": "cell-based", "conditions": "BCBL1, 48 h, BCBL-1, two days, read-out: 50% cell division inhibitory concentration", "protocol": "as §1"}, "[12]": {"system": "KSHV ORF 50 promoter", "test": "Dual luciferase promoter assay, KSHV ORF 50 promoter in BCBL-1 cells", "format": "cell-based", "conditions": "5 μg/ml, 48 hours", "text": "as §3, §4, §5"}, "[13]": {"system": "NIH3T12 cells", "test": "Cytotoxicity (monolayer growth and morphology) in NIH3T12 cells", "format": "cell-based, Murine", "conditions": "0.6-10 μg/ml, 2 days", "text": "as §2"}, "[14]": {"conditions": "cited from earlier work"}, "[15]": {"system": "KSHV, MHV 68", "conditions": "FIG. 4 comparison; cited from earlier work"}, "[16]": {"system": "KSHV", "quoted_text": "BCBL-1 cells were incubated with or without THC and in the presence of these compounds."}}, "note": "Where “and” joins values, the source holds several entries; their conditions need not be identical. Equal entries are not always repeated. Entries after “also recorded” stand apart in the source; their conditions may differ.", "data": [{"molecule": "CCCCCc1cc(O)c2c(c1)OC(C)(C)[C@@H]1CCC(C)=C[C@@H]21", "note": "[THC, Δ-9 Tetrahydrocannabinol]", "values": [{"measurement": "HVS virus yield reduction / replication", "setting": "[1]", "value": "strongly inhibited"}, {"measurement": "Cytopathic effect of MHV 68, appearance of infected cells", "setting": "[2]; 0.6 μg/ml, 48 hours, NIH3T12", "value": "intermediate between uninfected cells and the full cytopathic effect"}, {"measurement": "Cytopathic effect of MHV 68, appearance of infected cells", "setting": "[2]; 1.25 μg/ml or higher, 48 hours, NIH3T12", "value": "indistinguishable from uninfected control cells"}, {"measurement": "Inhibition of virus yield", "setting": "[2]; 10 μg/ml, 48 hours, NIH3T12", "value": "over 300 fold"}, {"measurement": "Potency and selectivity against MHV 68 compared with acyclovir, ganciclovir and foscarnet", "setting": "[2]; FIG. 4 comparison", "value": "even more potent and selective"}, {"measurement": "IC50", "setting": "[2]; Gammaherpesvirinae sp., in Mus musculus, 48 h, read-out: 50% inhibitory concentration (IC50), MHV 68 virus yield", "value": "~0.6 µg/mL and ~1.9 µM"}, {"measurement": "Effect on MHV 68 virus yield / replication", "setting": "[2]; NIH3T12 cells", "value": "inhibits MHV 68 virus yield; also recorded: highly significantly inhibited; also recorded: strongly inhibited"}, {"measurement": "Effect on EBV linear DNA synthesis", "setting": "[3]; autoradiogram", "value": "inhibited EBV linear DNA synthesis"}, {"measurement": "IC50", "setting": "[3]; human gammaherpesvirus 4, P3HR-1, read-out: 50% inhibitory concentration (IC50), EBV linear DNA synthesis", "value": "~0.9 µg/mL and ~3.1 µM"}, {"measurement": "IC50", "setting": "[4]", "value": "~99", "unit": "µM"}, {"measurement": "Toxicity", "setting": "[5]", "value": "no toxicity"}, {"measurement": "HSV-1 replication", "setting": "[6]", "value": "unaffected"}, {"measurement": "HSV-1 plaque development", "setting": "[7]; 0.6-10 μg/ml, 3 days, NIH3T12", "value": "indistinguishable from those in control cultures"}, {"measurement": "Effect on HSV-1 virus yield", "setting": "[7]; NIH3T12, multiplicity of 2, 24 hours", "value": "no significant inhibitory effect"}, {"measurement": "Reduction of control CMV promoter activity", "setting": "[8]", "value": 35, "unit": "%"}, {"measurement": "Effect on co-transfected CMV promoter", "setting": "[9]", "value": "slightly stimulated"}, {"measurement": "Potency and selectivity against KSHV compared with known antiviral drugs", "setting": "[10]; FIG. 4 comparison", "value": "potent and selective antiviral agent"}, {"measurement": "IC50", "setting": "[10]; Human gammaherpesvirus 8, BCBL1, 72 h, read-out: 50% inhibitory concentration (IC50), KSHV linear DNA", "value": "1 µg/mL and ~3.3 µM"}, {"measurement": "IC50", "setting": "[11]", "value": "~33", "unit": "µM"}, {"measurement": "Inhibition of KSHV ORF 50-driven luciferase activity", "setting": "[12]", "value": "~4", "unit": "fold"}, {"measurement": "Cell growth and morphology", "setting": "[13]", "value": "no altered morphology"}]}, {"molecule": "Nc1ccn(C[C@@H](CO)OCP(=O)(O)O)c(=O)n1", "note": "[Cidofovir]", "values": [{"measurement": "Side effects in humans", "setting": "[14]", "value": "toxic to the kidney"}, {"measurement": "Relative potency in in vitro antiviral experiments", "setting": "[15]", "value": "most potent"}]}, {"molecule": "SR144528", "values": [{"measurement": "Effect on spontaneous KSHV reactivation", "setting": "[16]; BCBL-1, without THC", "value": "no effect"}, {"measurement": "Reversal of inhibition of linear DNA synthesis by THC", "setting": "[16]; both antagonists, 1.25 μg/ml THC", "value": "reversed"}, {"measurement": "Reversal of THC inhibition of KSHV DNA synthesis", "setting": "[16]; single receptor antagonist", "value": "not reversed"}]}]}
